Assays:
RBP4 [1] = molecular target: T1, RBP4 (Homo sapiens, UniProt P02753); experiment: SPA assay measuring displacement of 3H-retinol from purified human RBP4; type: binding; details: for IC50: binding to human RBP4, 3H-retinol at 10 nM as radioligand; for ability to function as RBP4 ligands (competition binding): displacement of radioactive retinol from purified human RBP4
Procedure: 3H-retinol at 10 nM was used as a radioligand. […] Contacting residues are labeled and illustrated in stick format (MOE, Chemical Computing Group, Inc., Montreal, CA).
The affinity of palmitic acid, oleic acid, linoleic acid, and docosahexaenoic acid for RBP4 was tested using a SPA assay that measures displacement of radioactive retinol from purified human RBP4 (FIG. 21A).

RBP4 [2] = molecular target: T1, RBP4; details: Berni 1992; cited from earlier work
RBP4-TTR interaction = RBP4-TTR interaction (Homo sapiens, UniProt P02753); details: Berni 1992, Schaffer 1993; cited from earlier work
RBP4 [3] = molecular target: RBP4 (Rattus norvegicus, UniProt P04916); details: Adams 1995; cited from earlier work
ob/ob mice = ob/ob mice fed a high-fat diet, Koh 2012; cited from earlier work

IC50 (RBP4 [1]) [µM] | ability to function as RBP4 ligands (competition binding) (RBP4 [1]) | Structure (SMILES) | binding to RBP4 (RBP4 [2]) | RBP4-TTR interaction (RBP4-TTR interaction) | serum RBP4 and retinol (RBP4 [3]) | weight gain, insulin resistance and fatty liver (ob/ob mice)
49.9 | – | CC/C=C\C/C=C\C/C=C\C/C=C\C/C=C\C/C=C\CCC(=O)O [Docosahexanoic acid (DHA), docosahexaenoic acid] | – | – | – | –
17.3 | weak RBP4 ligands | CCCCC/C=C\C/C=C\CCCCCCCC(=O)O [linoleic acid] | – | – | – | –
22.6 | weak RBP4 ligands | CCCCCCCCCCCCCCCC(=O)O [palmitic acid] | – | – | – | –
– | – | CC1=C(/C=C/C(C)=C/C=C/C(C)=C/C(=O)Nc2ccc(O)cc2)C(C)(C)CCC1 [fenretinide, N-(4-hydroxy-phenyl)retinamide] | bind to RBP4 | disrupt the RBP4-TTR interaction | reduce serum RBP4 and retinol | decreases

Structure (SMILES) | IC50 (RBP4 [1]) [µM] | ability to function as RBP4 ligands (competition binding) (RBP4 [1]) | binding to RBP4 (RBP4 [2]) | RBP4-TTR interaction (RBP4-TTR interaction) | serum RBP4 and retinol (RBP4 [3]) | weight gain, insulin resistance and fatty liver (ob/ob mice)
CCCCCCCC/C=C\CCCCCCCC(=O)O [oleic acid] | 33 | weak RBP4 ligands | – | – | – | –
